# Assay results published in patent US20250134857A1, “Fast Acting Joint Health Composition and Use Thereof” (Lonza Greenwood LLC, priority 2022, published 2025).
# Experiments:
# Format in all cases: cell-based, Human
# [1] = test system: MMP-13; test: MMP-13 expression by real-time PCR in IL-1β-treated SW1353 cells; details: for MMP-13 Percent Change over Control: 1 h pretreatment, then IL-1β (5 ng/ml) 24 hr
# Procedure: (§1) Human SW1353 chondrosarcoma cell line (ATCC, HTB-94) were grown in monolayer at 37° C., in a humidified atmosphere under 5% CO2, with Dulbecco's Modified Eagle Medium (DMEM) supplemented with 10% (v/v) fetal bovine serum (FBS) and 100 U/ml penicillin-streptomycin solution until 80% confluency with 0.1% v/v DMSO as a vehicle control.
# (§2) The SW1353 cells were starved for 24 h with serum-free DMEM medium (containing 100 U/ml penicillin-streptomycin), and then pretreated with various concentrations of andrographolide and tamarind seed extract at three concentrations (in triplicate) for one hour, followed by addition of IL-1β (5 ng/ml) in culture media for an additional 24 hr. In addition, sulforaphane was tested as a positive control in the same manner as andrographolide and TSE, which is illustrated in FIG. 1E.
# (§3) Real-time PCR was performed with the use of the SYBR Green PCR Master Mix (Applied Biosystems) according to the manufacturer's protocol and amplified on the ABI Prism 7000 sequence detection system. The results are illustrated in FIGS. 1A-1E, and in Table 1.
# [2] = test system: COX-2; test: COX-2 expression by real-time PCR in IL-1β-treated SW1353 cells; details: 1 h pretreatment, then IL-1β (5 ng/ml) 24 hr
# Procedure: as §1, §2
# Real-time PCR was performed with the use of the SYBR Green PCR Master Mix (Applied Biosystems) according to the manufacturer's protocol and amplified on the ABI Prism 7000 sequence detection system.
# [3] = test system: IL-1A; test: IL-1A expression by real-time PCR in IL-1β-treated SW1353 cells; details: for IL-1A Percent Change over Control: 1 h pretreatment, then IL-1β (5 ng/ml) 24 hr
# Procedure: as §1, §2, §3
# [4] = test system: SOX-9; test: SOX-9 expression by real-time PCR in IL-1β-treated SW1353 cells; details: 1 h pretreatment, then IL-1β (5 ng/ml) 24 hr
# Procedure: as §1, §2, §3
# [5] = test system: IL-6; test: IL-6 expression by real-time PCR in IL-1β-treated SW1353 cells; details: for IL-6 Percent Change over Control: 1 h pretreatment, then IL-1β (5 ng/ml) 24 hr
# Procedure: as §1, §2, §3
# [6] = summary of Example 1, SW1353 cells, IL-1β
structure (smiles),measurement,setting,value
"C=C1CC[C@@H]2[C@](C)(CO)[C@H](O)CC[C@@]2(C)[C@@H]1C/C=C1/C(=O)OC[C@H]1O [Andrographolide, andrographolide]",MMP-13 Percent Change over Control,[1]; Dose 2.78,93.0%
same,MMP-13 Percent Change over Control,[1]; Dose 8.33,87.2%
same,MMP-13 Percent Change over Control,[1]; Dose 25,108.2%
same,"MMP-13, result in words",[1]; [6],significant reduction
same,COX-2 Percent Change over Control,[2]; Dose 2.78,27.1%
same,COX-2 Percent Change over Control,[2]; Dose 8.33,−22.8%
same,COX-2 Percent Change over Control,[2]; Dose 25,59.8%
same,IL-1A Percent Change over Control,[3]; Dose 2.78,28.3%
same,IL-1A Percent Change over Control,[3]; Dose 8.33,46.1%
same,IL-1A Percent Change over Control,[3]; Dose 25,73.1%
same,"IL-1, result in words",[3]; [6],significant reduction
same,SOX-9 Percent Change over Control,[4]; Dose 2.78,14.2%
same,SOX-9 Percent Change over Control,[4]; Dose 8.33,10.8%
same,SOX-9 Percent Change over Control,[4]; Dose 25,40.5%
same,IL-6 Percent Change over Control,[5]; Dose 2.78,46.7%
same,IL-6 Percent Change over Control,[5]; Dose 8.33,62.8%
same,IL-6 Percent Change over Control,[5]; Dose 25,101.3%
same,"IL-6, result in words",[5]; [6],significant reduction
